The values below come from patent publication US20190292155A1, “THERAPEUTIC INHIBITORY COMPOUNDS” (LifeSci Pharmaceuticals, Inc., priority 2016, published 2019).

The IC50 is the midpoint of a concentration-inhibition curve.

Like-named read-outs stand apart in the source and are kept apart here.

This assay addresses T1, human complement factor D (Homo sapiens, UniProt P00746).
T1 construct: purchased R&D Systems 1824-SE
As to the kind of experiment: In vitro enzyme inhibition of human complement factor D (Z-Lys-SBzl/DTNB, A405). In kind it is biochemical. The procedure:
The ability of the compounds disclosed herein to inhibit human complement factor D inhibitory activity was quantified according to the 12-step protocol provided below. • 1. Prepare assay buffer: 50 mM Tris/HCl, pH 7.5, 1 M NaCl. • 2. […] Then dilute the serial concentrations of Nafamostat Mesilate 20-fold in assay buffer. • 3. […] 0.5% DMSO was in each well finally. • 4. […] Add 10 μl diluted test compounds duplicated into the 96-well plate. […] 0.5% DMSO was in each well finally. • 6. Dilute 20 mM substrate Z-Lys-SBzl (Bachem, Cat# M-1300) to 200 μM in assay buffer with 200 μM DTNB (Sigma, Catalog# D8130). • 7. […] Add 40 μl diluted Complement Factor D in the 96-well plate. • 8. Positive control well contains Complement Factor D without test compound. Negative control well contains neither Complement Factor D nor test compound. Using assay buffer, bring the total volume of all controls to 50 al. • 9. Pre-incubate the plate for 5 min at room temperature. • 10. Add 50 μl of diluted substrate/DTNB mixture into each well. […] For kinetic reading: Immediately start measuring absorbance (A405 nm) continuously and record data every 30 sec for 60 min. • 12. Data analysis • Inhibition activity of compound was evaluated by IC50. IC50 was calculated according the dose-response curve of compound fitted using GraphPadPrism with “log(inhibitor)-response (variable slope)” equation. • % inhibition was calculated by using following equation:
[formula] • Mean(NC): The average value of the negative control wells' A405 nm values. • Mean(PC): The average value of the positive control wells' A405 nm values.

[1] abbreviates: biochemical assay, substrate Z-Lys-SBzl, read-out: CFD IC50.

T1 sequence (P00746 26-253): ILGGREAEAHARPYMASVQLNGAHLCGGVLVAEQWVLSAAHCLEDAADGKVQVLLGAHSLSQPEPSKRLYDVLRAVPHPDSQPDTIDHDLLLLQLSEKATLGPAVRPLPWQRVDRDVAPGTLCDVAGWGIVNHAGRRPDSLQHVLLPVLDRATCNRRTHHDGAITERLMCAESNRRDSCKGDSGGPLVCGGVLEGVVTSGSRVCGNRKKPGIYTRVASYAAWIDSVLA

On to `NC(=O)c1cc(C(F)(F)F)n(CC(=O)N(CC(=O)NCc2cccc(Cl)c2F)C2CC2)n1` [Example 43, 1-(2-((2-((3-chloro-2-fluorobenzyl)amino)-2-oxoethyl)(cyclopropyl)amino)-2-oxoethyl)-5-(trifluoromethyl)-1H-pyrazole-3-carboxamide], for which the IC50 under setting [1] is greater than 10000 nM.

Regarding `NC(=O)c1cc(C(=O)O)n(CC(=O)N(CC(=O)NCc2cccc(Cl)c2F)C2CC2)n1` [Example 44, 3-carbamoyl-1-(2-((2-((3-chloro-2-fluorobenzyl)amino)-2-oxoethyl)(cyclopropyl)amino)-2-oxoethyl)-1H-pyrazole-5-carboxylic acid], under setting [1], the IC50 lay within 1000 to 10000 nM.

As for `NC(=O)c1cc(C(N)=O)n(CC(=O)N(CC(=O)NCc2cccc(Cl)c2F)C2CC2)n1` [Example 45, 1-(2-((2-((3-chloro-2-fluorobenzyl)amino)-2-oxoethyl)(cyclopropyl)amino)-2-oxoethyl)-1H-pyrazole-3,5-dicarboxamide], the IC50 under setting [1] was 1000 to 10000 nM.

With `NC(=O)c1nn(CC(=O)N(CC(=O)NCc2cccc(Cl)c2F)C2CC2)cc1Br` [Example 46, 4-bromo-1-(2-((2-((3-chloro-2-fluorobenzyl)amino)-2-oxoethyl)(cyclopropyl)amino)-2-oxoethyl)-1H-pyrazole-3-carboxamide], the IC50 under setting [1] lay within 1000 to 10000 nM.

Consider `CC(=O)c1nc(CC(=O)N(CC(=O)NCc2cccc(Cl)c2F)C2CC2)n2ccccc12` [Example 48, 2-(1-acetylimidazo[1,5-a]pyridin-3-yl)-N-(2-((3-chloro-2-fluorobenzyl)amino)-2-oxoethyl)-N-cyclopropylacetamide], for which the IC50 under setting [1] fell in the range of 100 to 1000 nM.

Turning to `CC(O)c1nn(CC(=O)N(CC(=O)NCc2cccc(Cl)c2F)C2CC2)c2ccccc12` (stereo not drawn) [Example 49, N-(2-((3-chloro-2-fluorobenzyl)amino)-2-oxoethyl)-N-cyclopropyl-2-(3-(1-hydroxyethyl)-1H-indazol-1-yl)acetamide], the IC50 under setting [1] fell in the range of 1000 to 10000 nM.

In the case of `NC(=O)n1cc(NC(=O)N(CC(=O)NCc2cccc(Cl)c2F)C2CC2)c2ccccc21` [Example 51, 3-(3-(2-((3-chloro-2-fluorobenzyl)amino)-2-oxoethyl)-3-cyclopropylureido)-1H-indole-1-carboxamide], under setting [1], the IC50 is 100 to 1000 nM.

On to `NC(=O)n1cc(NC(=O)N(CC(=O)NCc2cccc(Cl)c2F)C2CCNC2)c2ccccc21` (stereo not drawn) [Example 52, 3-(3-(2-((3-chloro-2-fluorobenzyl)amino)-2-oxoethyl)-3-(pyrrolidin-3-yl)ureido)-1H-indole-1-carboxamide], for which the IC50 under setting [1] lay in the range of 100 to 1000 nM.

The molecule `CC(C)C(C)N(CC(=O)NCc1cccc(Cl)c1F)C(=O)Cn1nc(C(N)=O)c2ccccc21` (stereo not drawn) [Example 54, 1-(2-((2-((3-chloro-2-fluorobenzyl)amino)-2-oxoethyl)(3-methylbutan-2-yl)amino)-2-oxoethyl)-1H-indazole-3-carboxamide] showed an IC50 of 100 to 1000 nM.

`CC(CCO)N(CC(=O)NCc1cccc(Cl)c1F)C(=O)Cn1nc(C(N)=O)c2ccccc21` (stereo not drawn) [Example 57, 1-(2-((2-((3-chloro-2-fluorobenzyl)amino)-2-oxoethyl)(4-hydroxybutan-2-yl)amino)-2-oxoethyl)-1H-indazole-3-carboxamide] showed an IC50 of 100 to 1000 nM.

Regarding `CC(CO)N(CC(=O)NCc1cccc(Cl)c1F)C(=O)Cn1nc(C(N)=O)c2ccccc21` (stereo not drawn) [Example 58, 1-(2-((2-((3-chloro-2-fluorobenzyl)amino)-2-oxoethyl)(1-hydroxypropan-2-yl)amino)-2-oxoethyl)-1H-indazole-3-carboxamide], the IC50 fell in the range of 100 to 1000 nM.

Regarding `COC(=O)C(C)N(CC(=O)NCc1cccc(Cl)c1F)C(=O)Cn1nc(C(N)=O)c2ccccc21` (stereo not drawn) [Example 59, methyl 2-(2-(3-carbamoyl-1H-indazol-1-yl)-N-(2-((3-chloro-2-fluorobenzyl)amino)-2-oxoethyl)acetamido)propanoate], the IC50 under setting [1] was 1000 to 10000 nM.

Take `CC(CCF)N(CC(=O)NCc1cccc(Cl)c1F)C(=O)Cn1nc(C(N)=O)c2ccccc21` (stereo not drawn) [Example 60, 1-(2-((2-((3-chloro-2-fluorobenzyl)amino)-2-oxoethyl)(4-fluorobutan-2-yl)amino)-2-oxoethyl)-1H-indazole-3-carboxamide]: under setting [1], the IC50 was in the range of 100 to 1000 nM.

On to `CCC(COC)N(CC(=O)NCc1cccc(Cl)c1F)C(=O)Cn1nc(C(N)=O)c2ccccc21` (stereo not drawn) [Example 61, 1-(2-((2-((3-chloro-2-fluorobenzyl)amino)-2-oxoethyl)(1-methoxybutan-2-yl)amino)-2-oxoethyl)-1H-indazole-3-carboxamide], for which the IC50 under setting [1] lay within 1000 to 10000 nM.

For the molecule `CC(C(N)=O)N(CC(=O)NCc1cccc(Cl)c1F)C(=O)Cn1nc(C(N)=O)c2ccccc21` (stereo not drawn) [Example 62, 1-(2-((1-amino-1-oxopropan-2-yl)(2-((3-chloro-2-fluorobenzyl)amino)-2-oxoethyl)amino)-2-oxoethyl)-1H-indazole-3-carboxamide], the IC50 under setting [1] fell in the range of 1000 to 10000 nM.

On to `CC1CC1N(CC(=O)NCc1cccc(Cl)c1F)C(=O)Cn1nc(C(N)=O)c2ccccc21` (stereo not drawn) [Example 63, 1-(2-((2-((3-chloro-2-fluorobenzyl)amino)-2-oxoethyl)(2-methylcyclopropyl)amino)-2-oxoethyl)-1H-indazole-3-carboxamide], for which the IC50 under setting [1] was in the range of 100 to 1000 nM.

Regarding `CC(N(CC(=O)NCc1cccc(Cl)c1F)C(=O)Cn1nc(C(N)=O)c2ccccc21)C(C)(C)C` (stereo not drawn) [Example 64, 1-(2-((2-((3-chloro-2-fluorobenzyl)amino)-2-oxoethyl)(3,3-dimethylbutan-2-yl)amino)-2-oxoethyl)-1H-indazole-3-carboxamide], the IC50 under setting [1] fell in the range of 100 to 1000 nM.

Regarding `CC(c1ccccc1)N(CC(=O)NCc1cccc(Cl)c1F)C(=O)Cn1nc(C(N)=O)c2ccccc21` (stereo not drawn) [Example 65, 1-(2-((2-((3-chloro-2-fluorobenzyl)amino)-2-oxoethyl)(1-phenylethyl)amino)-2-oxoethyl)-1H-indazole-3-carboxamide], under setting [1], the IC50 was 100 to 1000 nM.

Consider `CC(CF)N(CC(=O)NCc1cccc(Cl)c1F)C(=O)Cn1nc(C(N)=O)c2ccccc21` (stereo not drawn) [Example 66, 1-(2-((2-((3-chloro-2-fluorobenzyl)amino)-2-oxoethyl)(1-fluoropropan-2-yl)amino)-2-oxoethyl)-1H-indazole-3-carboxamide], for which, under setting [1], the IC50 is 100 to 1000 nM.

`CC(N(CC(=O)NCc1cccc(Cl)c1F)C(=O)Cn1nc(C(N)=O)c2ccccc21)C(F)(F)F` (stereo not drawn) [Example 67, 1-(2-((2-((3-chloro-2-fluorobenzyl)amino)-2-oxoethyl)(1,1,1-trifluoropropan-2-yl)amino)-2-oxoethyl)-1H-indazole-3-carboxamide]: under setting [1], the IC50 lay within 100 to 1000 nM.

Turning to `COCC(C)N(CC(=O)NCc1cccc(Cl)c1F)C(=O)Cn1nc(C(N)=O)c2ccccc21` (stereo not drawn) [Example 68, 1-(2-((2-((3-chloro-2-fluorobenzyl)amino)-2-oxoethyl)(1-methoxypropan-2-yl)amino)-2-oxoethyl)-1H-indazole-3-carboxamide], the IC50 under setting [1] is 100 to 1000 nM.

On to `NC(=O)c1nn(CC(=O)N(CC(=O)NCc2cccc(Cl)c2F)C(CO)C2CC2)c2ccccc12` (stereo not drawn) [Example 69, 1-(2-((2-((3-chloro-2-fluorobenzyl)amino)-2-oxoethyl)(1-cyclopropyl-2-hydroxyethyl)amino)-2-oxoethyl)-1H-indazole-3-carboxamide], for which the IC50 under setting [1] was 1000 to 10000 nM.

For `CCOC(=O)CC(C)N(CC(=O)NCc1cccc(Cl)c1F)C(=O)Cn1nc(C(N)=O)c2ccccc21` (stereo not drawn) [Example 72, ethyl 3-(2-(3-carbamoyl-1H-indazol-1-yl)-N-(2-((3-chloro-2-fluorobenzyl)amino)-2-oxoethyl)acetamido)butanoate], under setting [1], the IC50 fell in the range of 100 to 1000 nM.

Regarding `NC(=O)c1nn(CC(=O)N(CC(=O)NCc2cccc(Cl)c2F)C(CCO)C2CC2)c2ccccc12` (stereo not drawn) [Example 73, 1-(2-((2-((3-chloro-2-fluorobenzyl)amino)-2-oxoethyl)(1-cyclopropyl-3-hydroxypropyl)amino)-2-oxoethyl)-1H-indazole-3-carboxamide], under setting [1], the IC50 was 1000 to 10000 nM.

For `CC(CC(=O)O)N(CC(=O)NCc1cccc(Cl)c1F)C(=O)Cn1nc(C(N)=O)c2ccccc21` (stereo not drawn) [Example 74, 3-(2-(3-carbamoyl-1H-indazol-1-yl)-N-(2-((3-chloro-2-fluorobenzyl)amino)-2-oxoethyl)acetamido)butanoic acid], under setting [1], the IC50 lay in the range of 1000 to 10000 nM.

`NC(=O)CC(C1CC1)N(CC(=O)NCc1cccc(Cl)c1F)C(=O)Cn1nc(C(N)=O)c2ccccc21` (stereo not drawn) [Example 75, 1-(2-((3-amino-1-cyclopropyl-3-oxopropyl)(2-((3-chloro-2-fluorobenzyl)amino)-2-oxoethyl)amino)-2-oxoethyl)-1H-indazole-3-carboxamide]: the IC50 under setting [1] lay in the range of 1000 to 10000 nM.

As to `CC(CC(N)=O)N(CC(=O)NCc1cccc(Cl)c1F)C(=O)Cn1nc(C(N)=O)c2ccccc21` (stereo not drawn) [Example 76, 1-(2-((4-amino-4-oxobutan-2-yl)(2-((3-chloro-2-fluorobenzyl)amino)-2-oxoethyl)amino)-2-oxoethyl)-1H-indazole-3-carboxamide], the IC50 under setting [1] fell in the range of 100 to 1000 nM.
